Source: ChEMBL document CHEMBL3286117, “Synthesis and pharmacological evaluation of analogues of benzyl quinolone carboxylic acid (BQCA) designed to bind irreversibly to an allosteric site of the M ₁ muscarinic acetylcholine receptor” (J Med Chem, 2014)
Activity calls are given as the source filed them. The rule behind the calls is not given here.

Assays:
[1] = biological target: T1, Muscarinic acetylcholine receptor M1 (Homo sapiens) (UniProt P11229); experiment: Displacement of [3H]NMS from human M1 mAChR expressed in FlpIn-CHO cells after 4 hrs by microplate counting analysis; assay type: cell-based
T1 sequence (whole entry): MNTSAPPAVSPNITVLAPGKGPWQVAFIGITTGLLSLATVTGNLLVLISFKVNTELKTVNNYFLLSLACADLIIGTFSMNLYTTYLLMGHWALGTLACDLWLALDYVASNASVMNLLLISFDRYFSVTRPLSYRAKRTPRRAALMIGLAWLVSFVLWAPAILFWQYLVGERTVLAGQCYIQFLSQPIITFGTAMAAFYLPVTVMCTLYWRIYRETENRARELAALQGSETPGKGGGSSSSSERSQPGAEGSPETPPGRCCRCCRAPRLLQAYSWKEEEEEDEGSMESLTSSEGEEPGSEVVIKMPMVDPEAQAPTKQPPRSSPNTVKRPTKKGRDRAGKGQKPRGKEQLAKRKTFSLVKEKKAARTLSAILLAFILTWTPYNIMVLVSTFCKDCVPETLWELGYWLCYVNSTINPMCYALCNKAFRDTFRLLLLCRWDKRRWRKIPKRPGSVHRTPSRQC

[2] = biological target: T2, Muscarinic acetylcholine receptor M1 (Homo sapiens, UniProt P11229); experiment: Activation of human M1 mAChR expressed in FlpIn-CHO cells assessed as […] ERK1/2 phosphorylation incubated for 5 mins by Alphascreen assay; assay type: cell-based
T2 sequence (P11229 whole entry): T1 sequence (whole entry)

[3] = biological target: T1, Muscarinic acetylcholine receptor M1 (Homo sapiens); experiment: Irreversible binding to human M1 mAChR expressed in FlpIn-CHO cell membrane assessed as receptor alkylation incubated for 30 mins prior to [3H]NMS addition measured after 4 hrs by radioligand displacement analysis (reference value: 100%); assay type: cell membranes
[4] = biological target: T1, Muscarinic acetylcholine receptor M1 (Homo sapiens); experiment: Irreversible binding to human M1 mAChR expressed in FlpIn-CHO cells assessed as receptor alkylation incubated for 30 mins prior to [3H]NMS addition measured 4 hrs after compound washout by whole cell radioligand displacement analysis relative to vehicle-treated control; assay type: cell-based

| Compound | pKb [1] | EC50 [2] [nM] | Bmax [3] [%] | Activity [4] |
| --- | --- | --- | --- | --- |
| O=C(CBr)Nc1ccc(Cn2cc(C(=O)O)c(=O)c3ccccc32)cc1 | 4.72 | 1580 | – | – |
| O=C(O)c1cn(Cc2ccc(N=C=S)cc2)c2ccccc2c1=O | 5.22 | 389 | 50 | inactive |
| COc1ccc(Cn2cc(C(=O)O)c(=O)c3ccccc32)cc1 | – | – | 90.8 | inactive |
| O=C(O)c1cn(Cc2ccc(S(=O)(=O)F)cc2)c2ccccc2c1=O | 3.97 | 316 | – | – |
| O=C(O)c1cn(Cc2ccc(N3C(=O)C=CC3=O)cc2)c2ccccc2c1=O | 5.09 | 417 | – | – |
